Laboratory results reported in patent US20120237552A1, “Peptoid Agonists of Nerve Growth Factor and Their Use as Medicaments” (priority 2009, published 2012).

What was measured:
[1] = test system: TNFα, IL2, iNOS gene expression; assay: Cytokine and iNOS gene expression in spleen of EAE mice (quantitative RT-PCR); format: in vivo; settings: end of the experiment, treated vs placebo
Method: Brains and spinal cords from mice obtained at the time of death were homogenized in RNA lysis buffer. Total RNA was extracted using the RNeasy Mini Kit (Qiagen, Chatwworth, Calif.) isolation system, including DNase treatment using the RNase-Free DNase Set (Quiagen). Total RNA (35 μg) was reverse transcribed using the Reverse Transcription System (High Capacity cDNA Archive Kit; Applied Biosystems, Foster City, Calif.). The real time reaction was conducted at 25° C. for 10 minutes, followed by 37° C. for 2 hours, and finally stored at 4° C. Primers and target-specific fluorescence-labeled TaqMan probes were purchased from Applied Biosystems (TaqMan Gene Expression assays). We used the TaqMan Universal Master Mix (Applied biosystems). Amplification of complementary DNA was performed on a DNA Engine Opticon 2 Real-Time System (MJ Research, Watertown, Mass.) using 0.9 μM for each primer and 0.25 μM for the probe and 20 ng complementary DNA. The reaction conditions were an initial 2 minutes at 50° C., followed by 10 minutes at 95° C. and 40 cycles of 15 seconds at 95° C. and 1 minute at 60° C. Each sample was run in triplicate, and in each plate the target and the endogenous control were amplified in different wells. The expression of the gene tested was quantified relative to the level of the housekeeping gene 18rRNA (Palacios et al., 2008).
To assess which was the effect of this compound in the peripheral immune response, the proliferative response against the immunizing antigen (MOG) in splenocytes of naïve animals and the cytokine profile in spleen cells from placebo and treated animals were evaluated. […] Gene expression of interleukin2 (IL2), Interferon γ (IFNγ), tumor necrosis factor α (TNFα), inducible nitric oxide synthase (iNOS) and interleukin 10 (IL10) was investigated by quantitative reverse transcriptase PCR at the end of the experiment in splenocytes from placebo and treated animals.

C57BL/6 EAE mice = assay: Histological evaluation of brain and spinal cord in EAE mice; format: in vivo; settings: 100 mg/kg
Method: Histological evaluation was done on paraformaldehyde-fixed, paraffin-embedded sections of brain and spinal cord. Sections 10 μm thick) were stained with hematoxylin and Luxol Fast Blue to assess inflammation and demyelination. Semiquantitative histological evaluation for inflammation and demyelination was conducted and scored blindly using the following scale: 0=normal; 1=1 to 3/section perivascular cuffs with minimal demyelination; 2=3 to 10 perivascular cuffs/section accompanied by moderate demyelination; 3=wide-spread perivascular cuffing, extensive demyelination with large confluent lesions (Villoslada et al., 2001).
Immunohistochemical procedures were performed on 10 μm paraffin-embedded sections of brain and spinal cord as described previously (Villoslada et al., 2001). Primary antibodies were added at concentrations of 1/1000 for MCA500 (rat anti-mouse CD3 from Serotec) and 1/500 for MCA1107 (rat anti-mouse CD4 from Serotec). Specificity of the immunoreaction was determined by incubating sections without the primary antibodies or using the corresponding isotype controls which yielded no immunoreactivity.

For `CC(C)CCN(CC(=O)N(CCCN1CCCC1=O)CC(N)=O)C(=O)CNCCc1ccccc1F` [N35-4-8C, [N-(2-(2′-Fluorophenyl)ethyl)glycyl]-[N-(3-methylbutyl)glycyl]-N-[3-(2′-oxopyrrolidinyl)propyl]glycinamide], the “gene expression of IL2 in spleen” value [1] was “significant decrease”, the “gene expression of TNFα in spleen” value [1] was “significant decrease” and the “gene expression of iNOS in spleen” value [1] was “significant decrease”. The “histological scores at the brain and spinal cord level” value (C57BL/6 EAE mice; day 26, vs placebo, p<0.05) was “significant lower histological scores”, the “demyelination areas (Luxol fast blue)” value (C57BL/6 EAE mice; spinal cord, vs placebo) was “decreased” and the “inflammatory infiltrates in the brain and the spinal cord” value (C57BL/6 EAE mice; vs placebo, p<0.05) was “less inflammatory infiltrates”.
